In PubChem BioAssay (NCI):
Values joined by “and” are separate entries in the source; they are usually repeats but may differ in a detail not shown here. Equal values may be shown once.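 Cells were grown in 96-well plates and exposed to each compound for 48 hours at five concentrations; endpoints were interpolated linearly between bracketing concentrations, or set to the highest concentration if not reached. GI50: concentration for 50% inhibition of growth. TGI marks complete inhibition of growth.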

Tests used:
Test in all cases: growth of human tumour cells (NCI), 48 h
[1] = system: CAKI-1 renal
[2] = system: IGROV1 ovarian
[3] = system: OVCAR-3 ovarian
[4] = system: HL-60(TB) leukemia
[5] = system: UACC-257 melanoma
[6] = system: OVCAR-5 ovarian
[7] = system: T-47D breast
[8] = system: SW-620 colon
[9] = system: SNB-75 CNS
[10] = system: M14 melanoma

SMILES	TGI [1]	TGI [2]	TGI [3]	TGI [4]	TGI [5]	TGI [6]	TGI [7]	TGI [8]	TGI [9]	TGI [10]	GI50 [1]	GI50 [2]	GI50 [3]	GI50 [4]	GI50 [5]	GI50 [6]	GI50 [7]	GI50 [8]	GI50 [9]	GI50 [10]
CC1(C)Oc2ccc3ccc(=O)oc3c2C(O)C1O (centres undefined)	> 100 µM	> 100 µM	> 100 µM	> 100 µM	94.9 µM	> 100 µM	> 100 µM	> 100 µM	> 100 µM	> 100 µM	–	–	–	–	–	–	–	–	–	–
CCC(CC)n1cnc2c(-c3cnc(N)cn3)nc(N3CC4CCC(C3)O4)nc21	1.73 µM	1.13 µM	> 100 µM	> 100 µM	4.07 µM	> 100 µM	0.217 µM	> 100 µM	1.18 µM	> 100 µM	0.108 µM	0.0929 µM	0.5 µM	1.41 µM	0.289 µM	0.374 µM	0.0233 µM	0.76 µM	0.0848 µM	0.151 µM
COc1cc2nc(N3CCCN(C)CC3)nc(NC3CCN(Cc4ccccc4)CC3)c2cc1OC	3.71 µM	25.3 µM	9.41 µM	4.3 µM	3.36 µM	15.1 µM	6.25 µM	9.64 µM	4.55 µM	3.22 µM	1.63 µM	7.33 µM	3.17 µM	1.83 µM	1.74 µM	4.47 µM	2.53 µM	2.96 µM	1.4 µM	1.76 µM
CC(=O)O.CN1[CH-]N(Cc2ccc(C#N)cc2)c2ccccc21.[Ag+]	33.9 µM	46.7 µM	30.4 µM	45.9 µM	29.7 µM	> 100 µM	60.1 µM	31 µM	68.9 µM	32.7 µM	18.2 µM	20.9 µM	16.6 µM	20.3 µM	14.8 µM	58.4 µM	14.8 µM	15.3 µM	20.6 µM	16.9 µM
O=C(O)Cc1cccc2c(=O)cc(-c3ccccc3)oc12	> 72 µM and 194 µM and 420 µM	> 1000 µM	250 µM and > 1000 µM	> 250 µM and 193 µM	> 1000 µM	250 µM and > 1000 µM	> 1000 µM	> 1000 µM	249 µM and > 676 µM	> 1000 µM	> 46.8 µM and 163 µM	518 µM	568 µM	142 µM	614 µM	> 1000 µM	690 µM	313 µM	345 µM	519 µM
O=C(O)c1cccc(S(=O)(=O)NCCO)c1	> 100 µM	> 100 µM	> 100 µM	> 100 µM	> 100 µM	> 100 µM	> 100 µM	> 100 µM	> 100 µM	> 100 µM	–	–	–	–	–	–	–	–	–	–
Cc1ccc(OP(=O)(Oc2ccc(C)cc2)N2C=Cc3ccccc3C2C#N)cc1 (centres undefined)	> 100 µM	> 100 µM	> 100 µM	> 100 µM	> 100 µM	> 100 µM	> 100 µM	> 100 µM	> 100 µM	> 100 µM	–	–	–	–	–	–	–	–	–	–
CCOC(=O)c1[nH]c2cc(Cl)ccc2c1[C@@H](C(=O)NC(C)(C)C)N(CC)C(=O)CCCCC#Cc1cccc2c1CN(C1CCC(=O)NC1=O)C2=O (some centres undefined)	8.62 µM	11.1 µM	> 38.9 µM	0.0959 µM	> 87.5 µM	40.2 µM	7.59 µM	> 100 µM	4.81 µM	17.7 µM	0.0355 µM	< 0.0109 µM	1.58 µM	< 0.01 µM	3.05 µM	2.08 µM	< 0.01 µM	< 0.01 µM	< 0.01 µM	0.213 µM
COc1ccc(Nc2nc(NCCNc3ccnc4cc(Cl)ccc34)nc(N3CCOCC3)n2)cc1	17.5 µM	23.4 µM	24.3 µM	12.7 µM	3.61 µM	31.4 µM	28 µM	13.4 µM	8.73 µM	3.47 µM	4.17 µM	8.43 µM	11.5 µM	1.13 µM	1.87 µM	15.7 µM	11.6 µM	3.47 µM	2.09 µM	1.86 µM
Cc1cc2c(F)c(Oc3ncnc(Nc4ccc(N5C[C@@H](C)N[C@@H](C)C5)cc4)c3C#N)cc(F)c2[nH]1	10.9 µM	6.91 µM	3.46 µM	3.95 µM	4.04 µM	8.68 µM	5.57 µM	4.1 µM	3.18 µM	3.59 µM	2.99 µM	2.48 µM	1.75 µM	1.93 µM	2.06 µM	2.8 µM	1.97 µM	1.83 µM	1.1 µM	1.87 µM
CCCc1nn(C)c2c(=O)[nH]c(-c3cc(S(=O)(=O)N4CCN(C)CC4)ccc3OCC)nc12	> 100 µM	> 100 µM	> 100 µM	> 100 µM	> 100 µM	> 100 µM	> 100 µM	> 100 µM	> 100 µM	> 100 µM	> 100 µM	91.4 µM	> 100 µM	> 100 µM	> 100 µM	> 100 µM	> 100 µM	> 100 µM	53.2 µM	> 100 µM
Cc1c(CN2CCN(C(=O)[C@H](C)O)CC2)sc2c(N3CCOCC3)nc(-c3cnc(N)nc3)nc12	> 4.52 µM and 2.14 µM	0.265 µM and 0.377 µM	5.4 µM and 2.18 µM	> 10 µM and 6.81 µM	3.76 µM and 0.751 µM	> 10 µM and 4.3 µM	0.332 µM and 0.175 µM	> 100 µM	0.67 µM and 0.255 µM	> 9.28 µM and 1.44 µM	0.159 µM and 0.213 µM	0.0161 µM and 0.0511 µM	0.202 µM and 0.182 µM	0.146 µM and 0.192 µM	0.31 µM and 0.132 µM	0.192 µM and 0.128 µM	0.0145 µM and 0.0269 µM	0.473 µM and 0.285 µM	0.0317 µM and 0.0235 µM	0.326 µM and 0.0936 µM
CC1=C(C#N)C23C(=O)N(c4ccccc4)C(=O)C2=C(O)C=CC3(O)N1Cc1ccc(Cl)cc1Cl (centres undefined)	12.1 µM	7.19 µM	4.96 µM	6.82 µM	27 µM	23.4 µM	14.6 µM	4.29 µM	16.7 µM	16.1 µM	2.94 µM	2.86 µM	2.89 µM	3.18 µM	13.2 µM	5 µM	2.93 µM	2.07 µM	4.09 µM	3.43 µM
Fc1cccc(COc2ccc(Nc3ncnc4onc(-c5ccccc5)c34)cc2)c1	> 100 µM	> 100 µM	2.19 µM	> 100 µM	> 100 µM	29.3 µM	> 100 µM	> 100 µM	0.155 µM	> 100 µM	0.573 µM	0.249 µM	0.252 µM	0.0955 µM	37.5 µM	0.34 µM	0.218 µM	0.139 µM	< 0.0162 µM	0.179 µM
NC(=O)c1cc(N2CC2)c([N+](=O)[O-])cc1[N+](=O)[O-]	> 200 µM	> 200 µM	> 200 µM	> 200 µM	> 200 µM	> 200 µM	> 200 µM	> 200 µM	> 200 µM	> 200 µM	> 200 µM	> 200 µM	> 200 µM	> 200 µM	> 200 µM	> 200 µM	–	> 200 µM	> 200 µM	> 200 µM
CN1C(=O)CCC(N2C(=O)c3cccc(NCCOCCOCCNC(=O)c4cc5c(o4)C(=O)c4ccccc4C5=O)c3C2=O)C1=O (centres undefined)	12.1 µM	4.31 µM	4 µM	5.88 µM	3.11 µM	3.17 µM	10.3 µM	7.93 µM	4.72 µM	2.74 µM	3.35 µM	1.8 µM	1.53 µM	2.03 µM	1.59 µM	1.76 µM	2.88 µM	2.6 µM	2.74 µM	1.35 µM
COc1nc(N)nc2c1ncn2C1CC(O)C(CO)O1 (centres undefined)	> 100 µM	> 100 µM	> 100 µM	> 100 µM	> 100 µM	> 100 µM	> 100 µM	> 100 µM	> 100 µM	> 100 µM	–	–	–	–	–	–	–	–	–	–
COc1ccccc1C#Cc1ccccc1C#Cc1ccc(OCCCCCCOc2ccccc2C#Cc2ccccc2C#Cc2ccccc2OC)cc1	> 100 µM	> 100 µM	> 100 µM	> 100 µM	> 100 µM	> 100 µM	> 100 µM	> 100 µM	> 100 µM	> 100 µM	> 100 µM	> 100 µM	> 100 µM	> 100 µM	> 100 µM	> 100 µM	> 100 µM	> 100 µM	> 100 µM	> 100 µM
Cc1ccc2c(C(C[N+](=O)[O-])c3ccccc3)c(-c3ccccc3)[nH]c2c1 (centres undefined)	> 95 µM	> 95 µM	> 95 µM	57.2 µM	> 95 µM	> 95 µM	> 95 µM	> 95 µM	43.6 µM	> 95 µM	4.73 µM	13.4 µM	16.3 µM	22.6 µM	29.3 µM	85.3 µM	26.4 µM	16.6 µM	2.87 µM	16 µM
COc1cc2nc(Nc3cccc(Cl)c3)nc(N)c2cc1OC	27.9 µM	25.4 µM	12.6 µM	39.4 µM	4.48 µM	35.4 µM	24 µM	7.15 µM	32.3 µM	3.73 µM	12.3 µM	11 µM	4.12 µM	10.7 µM	2.11 µM	17.2 µM	5.13 µM	2.68 µM	17.4 µM	1.87 µM
CCOC(=O)C(=Cc1ccc(C#N)cc1)C(=O)OCC	5.37 µM	7.96 µM	4.39 µM	5.48 µM	5.63 µM	11.2 µM	7.96 µM	4.72 µM	10.5 µM	4.26 µM	2.12 µM	2.61 µM	2.01 µM	1.88 µM	2.41 µM	2.61 µM	2.15 µM	2.1 µM	2.17 µM	1.89 µM
O=C1C2CCN(CC2)C1CN1CCOCC1 (centres undefined)	4.09 µM	38.4 µM	4.18 µM	> 100 µM	10.2 µM	13.5 µM	3.93 µM	3.2 µM	36.2 µM	6.46 µM	–	–	–	–	–	–	–	–	–	–
COc1ccc(Br)cc1NC(=O)Nc1cccc2c1ccn2Cc1ccnc(N)c1	21.5 µM and > 10 µM	44.2 µM and > 10 µM	23.6 µM and > 10 µM	20.8 µM and > 10 µM	27.5 µM and > 10 µM	58.4 µM and > 10 µM	18.4 µM and > 10 µM	8.41 µM and > 10 µM	42.8 µM and > 10 µM	10.5 µM and > 10 µM	4.79 µM and 8.78 µM	7.64 µM and 3.95 µM	8.98 µM and > 10 µM	4.69 µM and 3.6 µM	9.81 µM and > 10 µM	12.7 µM and > 10 µM	3.3 µM and 3.9 µM	2.85 µM and 6.72 µM	2.19 µM and 5.1 µM	3.09 µM and 2.68 µM
OC1CC2CCC(C1)N2CCCN1c2ccccc2Sc2ccc(Cl)cc21 (centres undefined)	9.47 µM	5.01 µM	8.27 µM	6.37 µM	2.6 µM	8.01 µM	5.44 µM	5.77 µM	5.23 µM	3.56 µM	–	–	–	–	–	–	–	–	–	–
O=C(c1c(F)c(F)c(F)c(F)c1F)c1c(F)c(F)c(F)c(F)c1F	1.69 µM	2.64 µM	2.43 µM	> 100 µM	4.65 µM	3.65 µM	> 100 µM	60.6 µM	3.48 µM	5.97 µM	–	–	–	–	–	–	–	–	–	–
CCN1CCN(CCNc2nccc(-c3c(-c4ccc(F)c(O)c4)nc4occn34)n2)S1(=O)=O	> 100 µM	> 100 µM	> 100 µM	> 100 µM	> 100 µM	> 100 µM	24.6 µM	> 100 µM	> 100 µM	> 100 µM	4.3 µM	4.06 µM	4.44 µM	4.16 µM	5.15 µM	> 100 µM	2.13 µM	8.42 µM	3.65 µM	4.28 µM
COc1cc(-n2ccnc2-c2ccc3ccccc3c2)cc(OC)c1OC	> 75.3 µM	> 51.2 µM	19.4 µM	> 37.6 µM	> 100 µM	> 93.6 µM	60.7 µM	> 63 µM	36.8 µM	1.02 µM	0.0853 µM	0.259 µM	0.0288 µM	0.0232 µM	20 µM	0.408 µM	0.633 µM	0.0443 µM	0.123 µM	0.0376 µM
